# Source: PubChem BioAssay AID330 (DTP/NCI, 2004)
# Toxic doses and inconclusive results are not listed. Bridge positions count the residues as written; N and C are the ends. Peptide text beside a SMILES is read from it. I, II: the chains in the order shown.
# System: P388 leukemia ip, CD2F1 mice, survival T/C
# Assay: NCI In Vivo Anticancer Drug Screen. Data for tumor model P388 Leukemia (intraperitoneal) in CD2F1 (CDF1) mice
# Details: endpoint: median survival time, higher = longer survival
# Summary of the method: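 Mice carrying the transplanted tumor received test compound or vehicle. Survival was recorded in each group, and the value is the treated-group measurement divided by that of the vehicle-treated control group.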
# [1] = dose: 50.0 mg/kg/injection, schedule: Q01DX005 (ip), vehicle: Klucel (hydroxypropylcellulose) (HPC)
# [2] = dose: 100.0 mg/kg/injection, schedule: Q01DX005 (ip), vehicle: Klucel (hydroxypropylcellulose) (HPC)
# [3] = dose: 200.0 mg/kg/injection, schedule: Q01DX005 (ip), vehicle: Klucel (hydroxypropylcellulose) (HPC)
# [4] = dose: 60.0 mg/kg/injection, schedule: Q01DX005 (ip), vehicle: saline with Tween-80
# [5] = dose: 120.0 mg/kg/injection, schedule: Q01DX005 (ip), vehicle: saline with Tween-80
# [6] = dose: 240.0 mg/kg/injection, schedule: Q01DX005 (ip), vehicle: saline with Tween-80
# [7] = dose: 50.0 mg/kg/injection, schedule: Q01DX009 (ip), vehicle: saline
# [8] = dose: 50.0 mg/kg/injection, schedule: Q01DX005 (ip), vehicle: saline with Tween-80
# [9] = dose: 100.0 mg/kg/injection, schedule: Q01DX005 (ip), vehicle: saline with Tween-80
# [10] = dose: 100.0 mg/kg/injection, schedule: Q01DX009 (ip), vehicle: saline with Tween-80
# [11] = dose: 200.0 mg/kg/injection, schedule: Q01DX009 (ip), vehicle: saline with Tween-80
# [12] = dose: 50.0 mg/kg/injection, schedule: Q01DX009 (ip), vehicle: saline with Tween-80
smiles,measurement,setting,value
COC(=O)[C@@H]1c2cc3c(c(O)c2[C@@H](OC2OC(C)C(OC)C(C)(OC)C2OC)C[C@]1(C)O)C(=O)c1c(O)cc2c(c1C3=O)O[C@H]1O[C@]2(C)[C@H](O)[C@@H](N(C)C)[C@@H]1O (some centres undefined),T/C,"dose: 0.12 mg/kg/injection, schedule: Q01DX009 (ip), vehicle: saline",120 % of control
same,T/C,"dose: 0.25 mg/kg/injection, schedule: Q01DX009 (ip), vehicle: other",122 % of control
same,T/C,"dose: 0.25 mg/kg/injection, schedule: Q01DX010 (ip), vehicle: saline",110 % of control
same,T/C,"dose: 0.25 mg/kg/injection, schedule: Q04DX003 (ip), vehicle: other",116 % of control
same,T/C,"dose: 0.25 mg/kg/injection, schedule: Q04DX003 (ip), vehicle: saline",117 % of control
same,T/C,"dose: 0.43 mg/kg/injection, schedule: Q04DX003 (ip), vehicle: water",112 % of control
same,T/C,"dose: 0.5 mg/kg/injection, schedule: Q01DX009 (ip), vehicle: other",118 % of control
same,T/C,"dose: 0.5 mg/kg/injection, schedule: Q01DX010 (ip), vehicle: saline",105 % of control
same,T/C,"dose: 0.5 mg/kg/injection, schedule: Q04DX003 (ip), vehicle: other",109 % of control
same,T/C,"dose: 0.52 mg/kg/injection, schedule: Q04DX003 (ip), vehicle: clinical formulation",119 % of control
same,T/C,"dose: 0.72 mg/kg/injection, schedule: Q04DX003 (ip), vehicle: water",115 % of control
same,T/C,"dose: 0.86 mg/kg/injection, schedule: Q04DX003 (ip), vehicle: clinical formulation",121 % of control
same,T/C,"dose: 1.0 mg/kg/injection, schedule: Q01DX009 (ip), vehicle: other",91 % of control
same,T/C,"dose: 1.0 mg/kg/injection, schedule: Q01DX009 (ip), vehicle: saline + alcohol",86 % of control
same,T/C,"dose: 1.0 mg/kg/injection, schedule: Q01DX009 (ip), vehicle: saline",150 % of control
same,T/C,"dose: 1.0 mg/kg/injection, schedule: Q01DX010 (ip), vehicle: saline",100 % of control
same,T/C,"dose: 1.44 mg/kg/injection, schedule: Q04DX003 (ip), vehicle: clinical formulation",114 % of control
same,T/C,"dose: 2.4 mg/kg/injection, schedule: Q04DX003 (ip), vehicle: clinical formulation",107 % of control
same,T/C,"dose: 3.33 mg/kg/injection, schedule: Q04DX003 (ip), vehicle: water",120 % of control
same,T/C,"dose: 125.0 micrograms/kg/injection, schedule: Q01DX009 (ip), vehicle: other",111 % of control
same,T/C,"dose: 375.0 micrograms/kg/injection, schedule: Q04DX003 (ip), vehicle: saline",121 % of control
same,T/C,"dose: 500.0 micrograms/kg/injection, schedule: Q04DX003 (ip), vehicle: saline",118 % of control
same,T/C,"dose: 1000.0 micrograms/kg/injection, schedule: Q01DX009 (ip), vehicle: saline",114 % of control
same,T/C,"dose: 1500.0 micrograms/kg/injection, schedule: Q01DX009 (ip), vehicle: saline",92 % of control
same,T/C,"dose: 3000.0 micrograms/kg/injection, schedule: Q04DX003 (ip), vehicle: saline",91 % of control
COC1CC(O)OC1C(NC(C)=O)SC12CC3CC(CC(C3)C1)C2 (centres undefined),T/C,"dose: 100.0 mg/kg/injection, schedule: Q04DX003 (ip), vehicle: Klucel (hydroxypropylcellulose) (HPC)",104 % of control
same,T/C,"dose: 200.0 mg/kg/injection, schedule: Q04DX003 (ip), vehicle: Klucel (hydroxypropylcellulose) (HPC)",106 % of control
same,T/C,"dose: 400.0 mg/kg/injection, schedule: Q04DX003 (ip), vehicle: Klucel (hydroxypropylcellulose) (HPC)",104 % of control
O=C(O)c1cc(NCCO)c(C(=O)O)cc1NCCO,T/C,"dose: 50.0 mg/kg/injection, schedule: Q01DX005 (ip), vehicle: saline",97 % of control
same,T/C,"dose: 100.0 mg/kg/injection, schedule: Q01DX005 (ip), vehicle: saline",100 % of control
same,T/C,"dose: 200.0 mg/kg/injection, schedule: Q01DX005 (ip), vehicle: saline",91 % of control
CN(C)CCn1c2nc(=O)[nH]c(=O)c-2nc2ccccc21,T/C,"dose: 6.25 mg/kg/injection, schedule: Q01DX005 (ip), vehicle: Klucel (hydroxypropylcellulose) (HPC)",93 % of control
same,T/C,"dose: 12.5 mg/kg/injection, schedule: Q01DX005 (ip), vehicle: Klucel (hydroxypropylcellulose) (HPC)",100 % of control
same,T/C,"dose: 25.0 mg/kg/injection, schedule: Q01DX005 (ip), vehicle: Klucel (hydroxypropylcellulose) (HPC)",101 % of control
same,T/C,[1],98 % of control
O=C(CC(c1ccccc1Cl)C(C(=O)O)c1ccccc1)c1ccccc1 (centres undefined),T/C,[1],100 % of control
same,T/C,[2],91 % of control
same,T/C,[3],99 % of control
C=CCOc1cc2c(cc1C/C=C\c1ccc(OC)cc1)OCO2,T/C,[4],102 % of control
same,T/C,[5],104 % of control
same,T/C,[6],101 % of control
Fc1ccc(N=Cc2ccc(C=Nc3ccc(F)cc3)cc2)cc1,T/C,[7],100 % of control
same,T/C,"dose: 100.0 mg/kg/injection, schedule: Q01DX009 (ip), vehicle: saline",100 % of control
same,T/C,"dose: 200.0 mg/kg/injection, schedule: Q01DX009 (ip), vehicle: saline",97 % of control
CC(C)(CS)C(=O)O,T/C,[7],103 % of control
COc1cccc(C(=O)CCN(C)C(=O)OCc2ccccc2)c1OCc1ccccc1,T/C,"dose: 25.0 mg/kg/injection, schedule: Q01DX005 (ip), vehicle: saline with Tween-80",94 % of control
same,T/C,[8],103 % of control
same,T/C,[9],103 % of control
CCn1c(=O)c2n[nH]nc2n(CCCl)c1=O,T/C,"dose: 50.0 mg/kg/injection, schedule: Q01DX009 (ip), vehicle: Klucel (hydroxypropylcellulose) (HPC)",101 % of control
same,T/C,"dose: 100.0 mg/kg/injection, schedule: Q01DX009 (ip), vehicle: Klucel (hydroxypropylcellulose) (HPC)",103 % of control
same,T/C,"dose: 200.0 mg/kg/injection, schedule: Q01DX009 (ip), vehicle: Klucel (hydroxypropylcellulose) (HPC)",96 % of control
COC(=O)Nn1cc(C(C(C)=O)C(C)=O)c(C(C)=O)c1C,T/C,[1],99 % of control
same,T/C,[2],89 % of control
O=C(O)/C=C/c1ccc([N+](=O)[O-])cc1,T/C,[10],100 % of control
same,T/C,[11],105 % of control
Clc1ccc(OCC(Cn2ccnc2)c2ccc(Cl)cc2)cc1 (centres undefined),T/C,[12],100 % of control
same,T/C,[10],100 % of control
CCOC(=O)c1oc2cc(O)ccc2c(=O)c1-c1ccc(OC)c(OC)c1,T/C,[4],96 % of control
same,T/C,[5],87 % of control
same,T/C,[6],86 % of control
COC(=O)C1CC1(Cl)OC (centres undefined),T/C,[12],102 % of control
same,T/C,[10],102 % of control
same,T/C,[11],105 % of control
NC(CSSCC(N)C(=O)NC(Cc1ccccc1)C(=O)O)C(=O)NC(Cc1ccccc1)C(=O)O (stereo not drawn) (I: H-Cys-Phe-OH / II: H-Cys-Phe-OH; disulfide I:1-II:1; configuration not given here),T/C,[1],101 % of control
same,T/C,[2],97 % of control
same,T/C,[3],105 % of control
COC(CN(C)CC(OC)OC)OC,T/C,"dose: 100.0 mg/kg/injection, schedule: Q04DX003 (ip), vehicle: saline",95 % of control
same,T/C,"dose: 200.0 mg/kg/injection, schedule: Q04DX003 (ip), vehicle: saline",100 % of control
same,T/C,"dose: 400.0 mg/kg/injection, schedule: Q04DX003 (ip), vehicle: saline",100 % of control
CNC(=O)Oc1ccc(C2CCCCC2)cc1,T/C,[12],107 % of control
same,T/C,[10],107 % of control
same,T/C,[11],88 % of control
CN1CCC2CC1Cc1ccc(NS(C)(=O)=O)cc12 (centres undefined),T/C,[8],98 % of control
same,T/C,[9],100 % of control
same,T/C,"dose: 200.0 mg/kg/injection, schedule: Q01DX005 (ip), vehicle: saline with Tween-80",91 % of control
Cc1ccccc1C(C)C[n+]1cccc(C)c1C (centres undefined),T/C,"dose: 6.25 mg/kg/injection, schedule: Q01DX005 (ip), vehicle: saline with Tween-80",101 % of control
same,T/C,"dose: 12.5 mg/kg/injection, schedule: Q01DX005 (ip), vehicle: saline with Tween-80",101 % of control
CS(=O)(=O)N1C=Cc2ccccc2C=C1,T/C,"dose: 100.0 mg/kg/injection, schedule: Q04DX002 (ip), vehicle: saline with Tween-80",99 % of control
same,T/C,"dose: 200.0 mg/kg/injection, schedule: Q04DX002 (ip), vehicle: saline with Tween-80",90 % of control
same,T/C,"dose: 400.0 mg/kg/injection, schedule: Q04DX002 (ip), vehicle: saline with Tween-80",99 % of control
Oc1ccccc1CNCc1ccccc1O,T/C,"dose: 12.5 mg/kg/injection, schedule: Q01DX009 (ip), vehicle: saline with Tween-80",100 % of control
same,T/C,"dose: 25.0 mg/kg/injection, schedule: Q01DX009 (ip), vehicle: saline with Tween-80",100 % of control
same,T/C,[12],108 % of control
same,T/C,[10],98 % of control
